Data on one compound can be found in patent US6783949B1, “Processes for determining whether a test substance contains lipases or lipase inhibitors” (Aventis Pharma Deutschland GmbH, priority 1999, dated 2004).

The target in this experiment is T1, HSL (Rattus norvegicus, UniProt P15304).
T1 construct: The partially purified HSL can be stored at −70° C. for 4 to 6 weeks; from tissue; host or cells: rat epididymal fat cells (male Wistar rats)
T1 sequence (P15304 1-768 isoform P15304-2): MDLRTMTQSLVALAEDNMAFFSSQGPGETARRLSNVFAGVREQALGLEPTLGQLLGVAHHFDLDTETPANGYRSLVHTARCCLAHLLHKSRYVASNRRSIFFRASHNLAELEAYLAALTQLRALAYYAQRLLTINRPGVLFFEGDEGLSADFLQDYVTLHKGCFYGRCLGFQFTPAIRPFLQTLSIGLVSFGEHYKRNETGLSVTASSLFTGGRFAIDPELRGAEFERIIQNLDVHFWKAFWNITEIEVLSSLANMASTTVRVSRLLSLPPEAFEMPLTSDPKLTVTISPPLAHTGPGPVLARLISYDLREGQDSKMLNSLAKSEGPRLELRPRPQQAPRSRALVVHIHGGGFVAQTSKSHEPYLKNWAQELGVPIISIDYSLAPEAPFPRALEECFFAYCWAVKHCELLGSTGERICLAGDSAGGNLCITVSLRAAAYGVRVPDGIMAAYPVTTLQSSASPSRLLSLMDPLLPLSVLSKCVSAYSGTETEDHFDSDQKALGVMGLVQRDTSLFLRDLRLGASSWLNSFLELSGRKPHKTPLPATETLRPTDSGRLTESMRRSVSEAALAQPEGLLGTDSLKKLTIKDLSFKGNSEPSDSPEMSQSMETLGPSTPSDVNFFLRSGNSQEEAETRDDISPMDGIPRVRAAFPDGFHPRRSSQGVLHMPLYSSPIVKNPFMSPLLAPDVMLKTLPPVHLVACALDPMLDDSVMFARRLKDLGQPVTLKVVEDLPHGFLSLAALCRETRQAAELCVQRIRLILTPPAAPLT
Kind of experiment: Indirect NAG assay (extinction increase at 481 nm). The format is biochemical. Here is the method: A typical reaction is carried out at 30° C. for 60 min, for example in 1.5 ml Eppendorf vessels or 96-hole plates. […] 180 μl of the substrate solution (20 μg/ml of phosphatidylcholine, 10 μg/ml of phosphatidylinositol, 50 μg/ml of NAG in assay buffer) are added. After a preincubation for 15 min at 30° C., 20 μl of HSL in assay buffer are pipetted in and the extinction is immediately measured (see above) at 481 nm in a cuvette photometer (0.5 ml cuvette) or microtiter plate reader. After a certain incubation time, which is variable and depends on the chosen enzyme concentration and can be between 2 and 240 minutes, in this case incubation at 30° C. for 60 min, the extinction is measured again. The increase in the extinction in the yellow region, in this case at 481 nm, is a measure of the enzyme activity.
Isolated rat fat cells are obtained from epididymal fatty tissue from untreated male rats (Wistar, 220-250 g) by collagenase treatment according to published processes. The fat cells from 10 rats are washed three times by flotation with 50 ml each of homogenization buffer ([…], pH 7.4, 0.25 M sucrose, 1 mM ethylenediamine-N,N,N′,N′-tetraacetic acid (EDTA), 1 mM dithiothreitol (DTT), 10 μg/ml of leupeptin, 10 μg/ml of antipain, 20 μg/ml of pepstatin) and finally taken up in 10 ml of homogenization buffer. The fat cells are homogenized in a Teflon-in-glass homogenizer (Braun-Melsungen) by 10 strokes at 1500 rpm and 15° C. The homogenizate is centrifuged (Sorvall SM24 tubes, 5000 rpm, 10 min, 4° C.). The […] between the overlying fatty layer and the pellet is removed and the centrifugation is repeated. The […] resulting from this is centrifuged again (Sorvall SM24 tubes, 20,000 rpm, 45 min, 4° C.). […] After incubation for 60 min at 4° C. (shake at intervals of 15 min), the batch is centrifuged (Sorvall SM24 tubes, 3000 rpm, 10 min, 4° C.). The supernatant is brought to pH 5.2 by addition of glacial acetic acid and incubated at 4° C. for 30 min. […] The suspension is dialyzed overnight at 4° C. against 25 mM TRIS/HCl, pH 7.4, 50% glycerol, 1 mM DTT, and 10 μg/ml of leupeptin, pepstatin, and antipain and then applied to a hydroxylapatite column (0.1 g per 1 ml of suspension, equilibrated with 10 mM potassium phosphate, pH 7.0, 30% glycerol, 1 mM DTT). The column is washed with four volumes of equilibration buffer at a flow rate of 20 to 30 ml/h. The HSL is eluted with a volume of equilibration buffer which contains 0.5 M potassium phosphate, then dialyzed (see above) and concentrated 5 to 10 times by ultrafiltration (Amicon Diaflo PM 10 filter) at 4° C. The partially purified HSL can be stored at −70° C. for 4 to 6 weeks.
6 mg of phosphatidylcholine and 6 mg of phosphatidylinositol are dissolved in 1 ml of chloroform each. 10 mg of NAG are dissolved in 1 ml of chloroform. […] The chloroform (225 μl total volume) is completely removed by overblowing with a stream of N2. The dried substrate can be stored at 4° C. for up to three days. For the preparation of the phospholipid vesicles/micelles having intercalated NAG (on the test day), the dried substrate is taken up in 20 ml of assay buffer (25 mM TRIS/HCl, pH 7.4; 150 mM NaCl) and two ultrasonic treatments with an ultrasonic probe (Branson Sonifier type 11, standard microtip): 1st treatment setting 2, 2×1 min, in between in each case 1 min on ice; 2nd treatment setting 4, 2×1 min, in between in each case 1 min on ice. […] Before use as a substrate (within the next 2 h), the solution is additionally incubated on ice for 15 min.
The assay is carried out at 30° C. for 60 min in 1.5 ml Eppendorf vessels or 96-hole plates.

“And” between values parts separate entries of the source, which are not always exact repeats. Equal entries are not always repeated.

A word on the IC50: it is the point on the concentration scale where inhibition reaches its midpoint.

With `O=C(CCCCCCCCCCCNc1ccc([N+](=O)[O-])c2nonc12)OCC(O)CO` (racemic) [Compound 3], the IC50 is 1.52 µM and 2.14 µM.
